# Literature values as cited in US20030180823A1, “Individualization of therapy with antihistamines” (Xanthus Life Sciences, Inc., priority 2001, published 2003).
# Tested on: skin tests
# Conditions: very long half-life
compound,measurement,value
COc1ccc(CCN2CCC(Nc3nc4ccccc4n3Cc3ccc(F)cc3)CC2)cc1 [Astemizole],duration of inhibiting skin tests,up to 6 weeks
